Experimental data as given in ChEMBL document CHEMBL4765408, “Design and synthesis of benzylidenecyclohexenones as TrxR inhibitors displaying high anticancer activity and inducing ROS, apoptosis, and autophagy” (Eur J Med Chem, 2020).
Active and inactive are the calls of the source. The calls are words filed in the database; no cut-off is given here.

Assays:
A549 = assay: Antiproliferative activity against human A549 cells after 72 hrs by sulforhodamine B assay; assay type: functional, cell-based; details: A549, 72 h
MCF7 = assay: Antiproliferative activity against human MCF7 cells after 72 hrs by sulforhodamine B assay; assay type: functional, cell-based; details: MCF7, 72 h
KB = assay: Antiproliferative activity against human KB cells after 72 hrs by sulforhodamine B assay; assay type: functional, cell-based
[1] = Inhibition of TrxR in human MDA-MB-231 cells measured after 72 hrs by colorimetric method; assay type: cell-based
[2] = Antiproliferative activity against human KB-VIN cells after 72 hrs by sulforhodamine B assay; assay type: functional, cell-based; details: KBVIN
MDA-MB-231 [3] = assay: Induction of reactive oxygen species generation in human MDA-MB-231 cells measured after 24 hrs by DCFH-DA probe based flow cytometry; assay type: functional, cell-based
MDA-MB-231 [4] = assay: Antiproliferative activity against human MDA-MB-231 cells after 72 hrs by sulforhodamine B assay; assay type: functional, cell-based; details: MDA-MB-231, 72 h

| SMILES | IC50 (A549) [µM] | IC50 (MCF7) [µM] | IC50 (KB) [µM] | IC50 [1] [µM] | IC50 [2] [µM] | Activity (MDA-MB-231 [3]) | IC50 (MDA-MB-231 [4]) [µM] |
| --- | --- | --- | --- | --- | --- | --- | --- |
| COc1ccc(/C=C2\CCC=CC2=O)cc1[N+](=O)[O-] | 1.48 | 1.68 | 1.36 | 0.63 | 1.63 | Active | 0.59 |
| COc1cc(OC)c(/C=C2\CCC=CC2=O)c(OC)c1 | 4.7 | 9.08 | 5.82 | – | 6.45 | – | 5.07 |
| COc1cc(/C=C2\CCC=C(I)C2=O)cc(OC)c1OC | 4.86 | 5.33 | 3.67 | – | 5.31 | – | 0.67 |
| Cn1cc(/C=C2\CCC=CC2=O)c2ccccc21 | 4.92 | 6.04 | 4.42 | – | 4.96 | – | 3.37 |
| O=C1C=CCC/C1=C\c1cnc2ccccc2c1 | 4.45 | 5.25 | 0.92 | – | 5.38 | – | 0.64 |
| CCOc1ccc(/C=C2\CCC=CC2=O)cc1OC | 3.64 | 3.95 | 1.28 | – | 4.8 | – | 0.6 |
| O=C1C=CCC/C1=C\c1cccc(OC(F)(F)F)c1 | – | – | – | – | – | – | 0.82 |
| COc1cc(/C=C2\CCC=CC2=O)cc2ccccc12 | 1.63 | 3.6 | 1.5 | – | 2.62 | – | 1.63 |
| COc1cc(/C=C2\CN(C(=O)OCc3ccccc3)C=CC2=O)cc(OC)c1OC | 21.3 | > 25 | – | – | – | – | 24.2 |
| COc1cc(/C=C2\CCC=CC2=O)cc(OC)c1OC | 4.25 | 5.26 | 0.88 | 0.11 | 4.75 | Active | 0.67 |
| COc1cc(/C=C2\CN(S(=O)(=O)c3ccc(C)cc3)C=CC2=O)cc(OC)c1OC | 20.2 | 19.2 | – | – | – | – | 22.2 |
| O=C1C=CCC/C1=C\c1cccnc1 | 1.51 | 2.03 | 1.52 | – | 2.81 | – | 1.05 |
| COc1ccc(/C=C2\CCC=CC2=O)cc1 | 1.46 | 2.57 | 1.56 | – | 2.93 | – | 1.62 |
| CC(=O)n1cc(/C=C2\CCC=CC2=O)c2ccccc21 | 4.83 | 5.44 | 4.46 | – | 5.05 | – | 0.93 |
